Some test systems named below: TK-10 renal; OVCAR-5 ovarian; MDA-MB-435; MCF7 breast; HOP-92 NSCLC; HCC-2998 colon; IGROV1 ovarian; NCI-H460 lung; SF-539 CNS; EKVX NSCLC; UACC-62 melanoma; HCT-116 colon; HS 578T breast; KM12 colon; OVCAR-3 ovarian; HT29 colon; SNB-19 CNS; SK-MEL-28 melanoma.
What all share (experiment): NCI tumour cell line growth inhibition, 48 h

SMILES strings stand for the structures.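 Five concentrations, 48 hours, 96-well plates. At the GI50, growth is halved. Definition used: TGI = concentration required for complete inhibition of growth.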

Take `Cc1ccnc2nc3[nH]c4ccccc4c3cc12`: the TGI in the assay with TK-10 renal, with OVCAR-5 ovarian, with MDA-MB-435, in the assay on MCF7 breast, in the assay with HOP-92 NSCLC and in the assay with HCC-2998 colon was above 100 µM in each case. Moreover, the TGI with IGROV1 ovarian, in the assay with NCI-H460 lung, in the assay with SF-539 CNS, with EKVX NSCLC, in the assay on UACC-62 melanoma and with HCT-116 colon was above 100 µM each time. The TGI in the assay with HS 578T breast, in the assay on KM12 colon, with OVCAR-3 ovarian and with HT29 colon was above 100 µM throughout.
On to `COc1cc(/C=N/NC2=NCCCN2)ccc1O`, for which the TGI with SNB-19 CNS, in the assay with TK-10 renal, in the assay with OVCAR-5 ovarian, in the assay on MDA-MB-435, with MCF7 breast and with SK-MEL-28 melanoma was above 100 µM in each case. For the same compound, the TGI in the assay with HOP-92 NSCLC, in the assay on HCC-2998 colon, in the assay on IGROV1 ovarian, in the assay on NCI-H460 lung, in the assay with SF-539 CNS and with EKVX NSCLC was above 100 µM in each case. For the same compound, the TGI with UACC-62 melanoma, in the assay with HCT-116 colon, in the assay on HS 578T breast, in the assay on KM12 colon, with OVCAR-3 ovarian and in the assay on HT29 colon was above 100 µM throughout.
With `CCCCCNC1=CC(=O)c2ccccc2C1=O`, the TGI with SNB-19 CNS is 82.5 µM; in the assay with TK-10 renal, 52.3 µM; in the assay with OVCAR-5 ovarian, above 100 µM; with MDA-MB-435, above 100 µM; in the assay on MCF7 breast, above 100 µM; in the assay with SK-MEL-28 melanoma it was above 100 µM. Moreover, the TGI with HOP-92 NSCLC is 59.1 µM; in the assay with HCC-2998 colon, above 100 µM; in the assay on IGROV1 ovarian, above 100 µM; with NCI-H460 lung it was above 100 µM; with SF-539 CNS, 41 µM; in the assay with EKVX NSCLC, above 100 µM. Further, the TGI with UACC-62 melanoma was above 100 µM; in the assay with HCT-116 colon, above 61.7 µM; in the assay with HS 578T breast, above 81.3 µM; in the assay with KM12 colon it was above 100 µM; with OVCAR-3 ovarian, 65 µM; with HT29 colon it was above 100 µM.
As to `O=Cc1ccc2c(c1)CC1(C2)Cc2ccc(C=O)cc2C1`, the TGI is 89.2 µM in the assay with SNB-19 CNS; 65 µM in the assay with TK-10 renal; above 100 µM in the assay on OVCAR-5 ovarian; 6.15 µM in the assay with MDA-MB-435; above 70 µM with MCF7 breast; 59.1 µM in the assay on SK-MEL-28 melanoma. The TGI was 53.2 µM in the assay with HOP-92 NSCLC; above 91.8 µM in the assay on HCC-2998 colon; 54.5 µM in the assay on IGROV1 ovarian; 32.8 µM with NCI-H460 lung; 15.1 µM in the assay with SF-539 CNS; above 100 µM with EKVX NSCLC. For the same compound, the TGI with UACC-62 melanoma stood at 23.8 µM; in the assay on HCT-116 colon, 19.6 µM; with HS 578T breast it was 28.7 µM; in the assay with KM12 colon, 60.4 µM; with OVCAR-3 ovarian, 34.1 µM; in the assay with HT29 colon, 53.6 µM.
On to `CC(Oc1ccc(Cl)cc1Cl)C(=O)NN1C(=O)CSC1c1ccc(Cl)cc1` (stereo not drawn), for which the TGI in the assay on SNB-19 CNS, in the assay on TK-10 renal, in the assay with OVCAR-5 ovarian, in the assay with MDA-MB-435, in the assay on MCF7 breast and in the assay with SK-MEL-28 melanoma was above 100 µM in each case. Also, the TGI in the assay with HOP-92 NSCLC was 66.3 µM; in the assay on HCC-2998 colon, above 100 µM; in the assay with IGROV1 ovarian it was above 100 µM; in the assay on NCI-H460 lung, above 100 µM; in the assay with SF-539 CNS, 43.9 µM; with EKVX NSCLC, above 100 µM. Further, the TGI with UACC-62 melanoma, in the assay with HCT-116 colon, with HS 578T breast, with KM12 colon, in the assay with OVCAR-3 ovarian and in the assay with HT29 colon was above 100 µM throughout.
Turning to `COc1ccc2c(c1)/C(=C\c1cccc(/C=C3/C(=O)Nc4ccc(OC)cc43)n1)C(=O)N2`, the TGI with SNB-19 CNS was 3.38 µM; in the assay on TK-10 renal, 6.57 µM; in the assay on OVCAR-5 ovarian, 3.74 µM; in the assay with MDA-MB-435, 6.81 µM; in the assay with MCF7 breast, above 25.6 µM; in the assay on HOP-92 NSCLC, 7.44 µM. The TGI with HCC-2998 colon was 3.58 µM; with IGROV1 ovarian it was above 100 µM; in the assay on NCI-H460 lung, above 24.6 µM; in the assay with SF-539 CNS it was 5.7 µM; in the assay on EKVX NSCLC it was above 40.3 µM; in the assay with UACC-62 melanoma, 2.28 µM. Moreover, the TGI in the assay with HCT-116 colon was 1.29 µM; in the assay with HS 578T breast, above 46.9 µM; with KM12 colon, 4.64 µM; with OVCAR-3 ovarian, 5.38 µM. Moreover, the values for the GI50 with IGROV1 ovarian and with UACC-62 melanoma were 2.2 µM and 0.703 µM, respectively.
As for `COC(=O)[C@]12CSC[C@H]1C[C@H](c1ccc(N(C)C)cc1)N2`, the TGI in the assay on SNB-19 CNS, with TK-10 renal, in the assay on OVCAR-5 ovarian, with MDA-MB-435, in the assay with MCF7 breast and in the assay on SK-MEL-28 melanoma was above 100 µM throughout. Besides, the TGI with HOP-92 NSCLC, with HCC-2998 colon, in the assay with IGROV1 ovarian, with NCI-H460 lung, in the assay with SF-539 CNS and in the assay on EKVX NSCLC was above 100 µM in each case. For the same compound, the TGI in the assay on UACC-62 melanoma, with HCT-116 colon, with HS 578T breast, in the assay with KM12 colon and in the assay on OVCAR-3 ovarian was above 100 µM throughout.
In the case of `COC(=O)/C(C#N)=C(\Nc1ccccc1)N1CCCCC1`, the TGI with SNB-19 CNS, in the assay on TK-10 renal, in the assay with OVCAR-5 ovarian, with MDA-MB-435, with MCF7 breast and in the assay with SK-MEL-28 melanoma was above 100 µM in each case. Further, the TGI with HOP-92 NSCLC, in the assay with HCC-2998 colon, with IGROV1 ovarian, in the assay with NCI-H460 lung, in the assay on SF-539 CNS and in the assay on EKVX NSCLC was above 100 µM throughout. Besides, the TGI with HCT-116 colon, in the assay on HS 578T breast, in the assay on OVCAR-3 ovarian and with HT29 colon was above 100 µM in each case.
On to `O=c1[nH]c(=O)n(C2CC(O)C(CO)O2)c2nc3ccc4ccccc4c3nc12` (stereo not drawn), for which the TGI in the assay with SNB-19 CNS, with TK-10 renal, in the assay with OVCAR-5 ovarian, in the assay on MDA-MB-435, with MCF7 breast and in the assay on SK-MEL-28 melanoma was above 100 µM throughout. Also, the TGI in the assay with HOP-92 NSCLC, in the assay on HCC-2998 colon, in the assay on IGROV1 ovarian, in the assay with NCI-H460 lung, in the assay with SF-539 CNS and in the assay with EKVX NSCLC was above 100 µM throughout. Further, the TGI with UACC-62 melanoma, with HCT-116 colon, in the assay on HS 578T breast, in the assay with KM12 colon and in the assay with OVCAR-3 ovarian was above 100 µM throughout.
In the case of `CCn1c(=O)c2c3ccc(O)cc3oc2c2ccc(O)cc21`, the TGI with SNB-19 CNS, in the assay on TK-10 renal, in the assay with MDA-MB-435, in the assay on MCF7 breast, in the assay on SK-MEL-28 melanoma and in the assay with HOP-92 NSCLC was above 100 µM throughout. Besides, the TGI is above 100 µM in the assay with HCC-2998 colon; above 100 µM in the assay on IGROV1 ovarian; above 100 µM in the assay with NCI-H460 lung; above 100 µM with SF-539 CNS; 7.39 µM in the assay with EKVX NSCLC; above 100 µM in the assay with UACC-62 melanoma. Also, the TGI was 74 µM in the assay on HCT-116 colon; 70.4 µM with HS 578T breast; above 100 µM in the assay with KM12 colon; above 100 µM in the assay with OVCAR-3 ovarian; above 100 µM in the assay on HT29 colon.
Consider `COc1ccc(CCN(C)C(=O)CC(C#N)(c2ccccc2)c2ccc(OC)c(OC)c2)cc1OC` (stereo not drawn), for which the TGI with SNB-19 CNS, in the assay with TK-10 renal, with OVCAR-5 ovarian, with MDA-MB-435, in the assay on MCF7 breast and with SK-MEL-28 melanoma was above 100 µM throughout. The TGI in the assay on HOP-92 NSCLC is above 76 µM; in the assay with IGROV1 ovarian it was above 100 µM; in the assay on NCI-H460 lung, above 100 µM; with SF-539 CNS it was above 100 µM; with EKVX NSCLC, above 100 µM; in the assay on UACC-62 melanoma, above 100 µM. Moreover, the TGI in the assay on HCT-116 colon, in the assay on HS 578T breast, with KM12 colon, in the assay with OVCAR-3 ovarian and in the assay on HT29 colon was above 100 µM in each case.
On to `Nc1c(Cl)c([N+](=O)[O-])cc2c1OCCCCO2`, for which the TGI with TK-10 renal, in the assay on OVCAR-5 ovarian, with MDA-MB-435, in the assay on MCF7 breast, with SK-MEL-28 melanoma and in the assay with HOP-92 NSCLC was above 100 µM throughout. Further, the TGI in the assay on HCC-2998 colon, in the assay with IGROV1 ovarian, with NCI-H460 lung, with SF-539 CNS, in the assay with EKVX NSCLC and with UACC-62 melanoma was above 100 µM in each case. In addition, the TGI in the assay on HCT-116 colon, in the assay with HS 578T breast, in the assay with KM12 colon, in the assay on OVCAR-3 ovarian and in the assay on HT29 colon was above 100 µM in each case.
Take `C=CC(c1ccccc1)C1(O)c2cccc(O)c2C(=O)c2c(O)cccc21` (stereo not drawn): the TGI worked out at 38.6 µM in the assay with TK-10 renal; 54.2 µM in the assay with OVCAR-5 ovarian; 22 µM in the assay on MDA-MB-435; 37.8 µM in the assay on MCF7 breast; 41.4 µM in the assay on SK-MEL-28 melanoma; 30.5 µM in the assay on HOP-92 NSCLC. The TGI with HCC-2998 colon turned out to be 22.9 µM; with IGROV1 ovarian it was 32.6 µM; in the assay with NCI-H460 lung, 36.7 µM; in the assay on SF-539 CNS it was 84.5 µM; with EKVX NSCLC, 38.6 µM; in the assay with HCT-116 colon, 24.7 µM. Also, the TGI in the assay on HS 578T breast amounted to 34.8 µM; with KM12 colon, 40.9 µM; in the assay on OVCAR-3 ovarian it was 38.9 µM; in the assay with HT29 colon, 25.3 µM.

The values are drawn from PubChem BioAssay (NCI).
